{
  "source": "patent US12473344B2",
  "about": "“Chimeric antigen receptor polypeptides and methods of using same” (The Board of Trustees of the Leland Stanford Junior …, priority 2018, dated 2025)",
  "key": {"[1]": {"test_system": "B7H3-expressing Nalm6 GFP tumor cells", "experiment": "Co-culture killing assay (tumor GFP fluorescence)", "type": "cell-based", "details": "for cytotoxicity of B7H3 CAR-SMASh T cells incubated with drug prior to co-culture: 3 μM, various amounts of time (from 24 h)", "experimental": "Cancer cell fluorescence was monitored by time-lapse microscopy. Total integrated fluorescence intensity was calculated and plotted as a function of time. […] Cytokine in culture supernatant was quantified using the Human IL-2 ELISA MAX™ and Human IFN-γ ELISA MAX™ Deluxe kits (BioLegend)."}, "[2]": {"test_system": "HCV NS3 protease", "details": "for CAR expression after removal of the protease inhibitor by washing / CAR expression after incubation with protease inhibitor: B7H3 CAR-SMASh", "experimental": "(§1) Flow cytometry of samples was performed on an LSR Fortessa (BD Bioscience) and data were analyzed using FlowJo software. B7H3 CARs were detected using B7H3 Fc. GD2 and CD19 CARs were detected by 1A7 and FMC63 anti-idiotype antibody, respectively. CD 22 CARs were detected using biotinylated protein L and APC conjugated streptavidin. FACS plots were gated on live single T cells. Untransduced T cells (“Mock”) were used as controls.\n(§2) CAR T cells were incubated in the indicated concentration of drug in T cell culture media (above) until analysis by FACS. Media was changed every 48-72 hours. Removal of drug was achieved by washing CAR T cells in T cell culture media 3 times."}, "[3]": {"test_system": "B7H3-expressing Nalm6 GFP", "experiment": "Cytokine in co-culture supernatant (IFN-γ ELISA)", "type": "cell-based", "experimental": "(§3) CAR T cells were co-cultured with indicated cancer cell lines, engineered to constitutively express green fluorescent protein, on day 10 post activation in 96-well plates at a ratio of 1:1 (50,000 cells each). Cancer cell fluorescence was monitored by time-lapse microscopy. Total integrated fluorescence intensity was calculated and plotted as a function of time. Co-culture supernatant was harvested after 24 hours of co-culture and analyzed for the presence of cytokine. Cytokine in culture supernatant was quantified using the Human IL-2 ELISA MAX™ and Human IFN-γ ELISA MAX™ Deluxe kits (BioLegend)."}, "[4]": {"test_system": "T cells", "experiment": "T cell aggregation during in vitro culture (microscope images)", "type": "cell-based", "details": "CAR-SMASh T cells incubated with inhibitor"}, "[5]": {"test_system": "markers of T cell exhaustion", "experiment": "Flow cytometry of activation/exhaustion-associated markers on CAR-SMASh T cells", "type": "cell-based, human", "from_the_text": "Asunaprevir (ASV), danoprevir (DPV), simeprevir (SPV), and grazoprevir (GPV) were purchased from ApexBio. Cell surface markers were stained with mouse monoclonal antibodies targeting PD-1 (PE-Cy7, eBioscience), LAG3 (PE, eBioscience), Tim-3 (BV 510, BioLegend), and B7-H3 (PE, R&D Systems). CAR molecules were stained with recombinant B7-H3 Fc (R&D Systems), protein L (Pierce Protein Biology), 1A7 anti-idiotype antibody, or FMC63 anti-idiotype antibody 136.20.1 conjugated in house using DyLight 650 Antibody Labeling Kit (Thermo Fisher). T cells were cultured in AIM V (Thermo Fisher) supplemented with 5% fetal bovine serum (Gibco), 100 U/mL rhIL-2 (PeproTech), 2 mM L-glutamine, 10 mM HEPES, 100 U/mL penicillin, and […] streptomycin (Invitrogen). Cancer cell lines were cultured in RPMI (Thermo Fisher) supplemented with 10% fetal bovine serum, 2 mM L-glutamine, 10 mM HEPES, 100 U/mL penicillin, and […] streptomycin.\nas §1, §2"}, "[6]": {"test_system": "B7H3 (low)-expressing Nalm6 GFP tumor cells", "experiment": "Co-culture killing assay, low antigen (tumor GFP fluorescence)", "type": "cell-based", "details": "3 μM, various amounts of time, B7H3 (low) targets", "experimental": "as §3"}, "[7]": {"test_system": "CAR expression on T cells in vivo", "experiment": "In vivo CAR expression by nanoluciferase imaging", "details": "MED8A mice, 50 mg/kg grazoprevir+25 mg/kg ritonavir two to three times per day by oral gavage", "experimental": "In a further study, real-time expression of a C-terminal nanoluciferase (nLuc) domain-containing CAR was monitored in vivo by nanoluciferase-based imaging.\nNext, in vivo CAR expression in the mice described in FIG. 27 was assessed by nanoluciferase imaging. Mice were injected with 200 μL of Nano-Glo substrate that was diluted 40× in PBS. After a 6-minute incubation period, the mice were imaged on an IVIS Spectrum imager."}, "[8]": {"test_system": "Nalm6 leukemia cells expressing B7H3 and firefly luciferase", "experiment": "In vivo Nalm6 leukemia model, bioluminescence imaging", "set-up": "species or system NSG mice", "details": "50 mg/kg grazoprevir+25 mg/kg ritonavir three times per day by oral gavage", "experimental": "NSG mice were infused with 10^6 Nalm6 leukemia cells expressing B7H3 and firefly luciferase. Four days later, mice were infused with 8×10^6 B7H3-BBz-SMASh CART cells or mock untransduced control cells. Mice that received B7H3-BBz-SMASh CAR T cells were either administered drug (50 mg/kg grazoprevir+25 mg/kg ritonavir) or vehicle (50% polyethylene glycol 300) three times per day by oral gavage. Bioluminescence imaging was used to follow the expansion of the firefly luciferase-expressing Nalm6 cells.\nAssessed in this example was whether B7H3 CAR-nanoluciferase-SMASh CAR-T cell activity could be controlled in vivo against Nalm6 leukemia cells. NSG mice were infused with 10^6 Nalm6 leukemia cells expressing B7H3 antigen and firefly luciferase by tail vein injection. Four days later, mice were infused with 8×10^6 B7H3 CAR-nanoluciferase-SMASh CAR-T cells or mock un-transduced control T cells by tail vein injection. Mice in the “CAR OFF” group were administered 50 mg/kg grazoprevir+25 mg/kg ritonavir (a pharmacokinetic enhancer of grazoprevir) two to three times per day by oral gavage. Bioluminescence imaging was used to follow the expansion of the firefly luciferase-expressing Nalm6 cells."}, "[9]": {"test_system": "GFP-labeled tumor cells expressing cognate antigen", "experiment": "Co-culture killing assay of several CAR-SMASh T cells in presence of drug", "type": "cell-based", "details": "3 μM asunaprevir", "experimental": "as §3"}, "[10]": {"details": "loss of CAR expression and exhaustion markers (FIG. 6, FIG. 9)"}},
  "data": [
    {"compound": "C=C[C@@H]1C[C@]1(NC(=O)[C@@H]1C[C@@H](Oc2ncc(OC)c3ccc(Cl)cc23)CN1C(=O)[C@@H](NC(=O)OC(C)(C)C)C(C)(C)C)C(=O)NS(=O)(=O)C1CC1", "note": "[asunaprevir, Asunaprevir]", "values": [
      {"measurement": "cytotoxicity of B7H3 CAR-SMASh T cells incubated with drug prior to co-culture", "setting": "[1]", "value": "reduced cytotoxicity"},
      {"measurement": "cytotoxicity of B7H3 CAR-SMASh T cells incubated with drug prior to co-culture", "setting": "[1]; listed as asumaprevir", "value": "significant reduction in killing"},
      {"measurement": "cytotoxicity of B7H3 CAR-SMASh T cells after drug removal prior to co-culture", "setting": "[1]; drug removed for various amounts of time", "value": "potent killing of tumor targets indistinguishable from constitutively expressed, non-regulated CAR T cells"},
      {"measurement": "CD19 CAR-SMASh expression after incubation with protease inhibitor", "setting": "[2]; 3 μM, various amounts of time", "value": "decrease in CD19 CAR-SMASh expression"},
      {"measurement": "CD22 CAR-SMASh expression after incubation with protease inhibitor", "setting": "[2]; 3 μM, various amounts of time", "value": "decrease in CD22 CAR-SMASh expression"},
      {"measurement": "GD2 CAR-SMASh expression after incubation with protease inhibitor", "setting": "[2]; 3 μM, various amounts of time", "value": "decrease in GD2 CAR-SMASh expression"},
      {"measurement": "CAR expression after removal of the protease inhibitor by washing", "setting": "[2]", "value": "recovery of CAR expression"},
      {"measurement": "CAR expression after incubation with protease inhibitor", "setting": "[2]; 3 μM, various amounts of time", "value": "decrease in CAR expression"},
      {"measurement": "time to full CAR re-expression after removal of drug", "setting": "[2]; B7H3 SMASh-CAR T cells", "value": "≤ 72", "unit": "h"},
      {"measurement": "time at which reduction in CAR expression was maximal", "setting": "[2]; B7H3 SMASh-CAR T cells, 3 μM", "value": 96, "unit": "h"},
      {"measurement": "time within which reduction in CAR expression occurred", "setting": "[2]; B7H3 SMASh-CAR T cells, 3 μM", "value": "≤ 24", "unit": "h"},
      {"measurement": "reduction of CAR expression", "setting": "[2]; B7H3 SMASh-CAR T cells, ex vivo, 3 μM (FIG. 4)", "value": "greater than 90%"},
      {"measurement": "CAR re-expression after removal of drug", "setting": "[2]; B7H3 SMASh-CAR T cells, within 24 h of removal", "value": "approximately 1.5 log"},
      {"measurement": "time to restoration of interferon production after removal", "setting": "[3]", "value": "≤ 24", "unit": "h"},
      {"measurement": "interferon production in response to antigen expressing targets", "setting": "[3]; drug-induced inhibition of CAR expression", "value": "very low levels"},
      {"measurement": "T cell aggregation during in vitro culture", "setting": "[4]", "value": "resistant to aggregation"},
      {"measurement": "expression of activation/exhaustion markers", "setting": "[5]; CAR-SMASh T cells, 3 μM", "value": "reduces expression of activation/exhaustion markers"},
      {"measurement": "relationship between inhibitor and expression of CAR molecules and activation/exhaustion-associated markers", "setting": "[5]; FIG. 9", "value": "dose-dependent relationship"},
      {"measurement": "concentration at which maximal effect was observed", "setting": "[5]; [10]", "value": 1, "unit": "µM"},
      {"measurement": "concentration at which near maximal effect was observed", "setting": "[5]; [10]", "value": 0.3, "unit": "µM"},
      {"measurement": "cytotoxicity of B7H3 CAR-SMASh T cells incubated with drug prior to co-culture", "setting": "[6]", "value": "reduced cytotoxicity"}
    ]},
    {"compound": "C=C[C@@H]1C[C@]1(NC(=O)[C@@H]1C[C@@H]2CN1C(=O)[C@H](C(C)(C)C)NC(=O)O[C@@H]1C[C@H]1CCCCCc1nc3ccc(OC)cc3nc1O2)C(=O)NS(=O)(=O)C1CC1.O", "note": "[grazoprevir]", "values": [
      {"measurement": "in vivo CAR expression (nanoluciferase imaging)", "setting": "[7]", "value": "diminished"},
      {"measurement": "cytotoxic capacity of B7H3-BBz-SMASh CAR T cells in vivo", "setting": "[8]", "value": "dramatically reduces the cytotoxic capacity"}
    ]},
    {"compound": "COc1ccc2c(O[C@@H]3C[C@H]4C(=O)N[C@]5(C(=O)NS(=O)(=O)C6CC6)C[C@H]5/C=C\\CCCCN(C)C(=O)[C@@H]4C3)cc(-c3nc(C(C)C)cs3)nc2c1C", "note": "[simeprevir]", "values": [
      {"measurement": "CAR expression after removal of the protease inhibitor by washing", "setting": "[2]", "value": "recovery of CAR expression"},
      {"measurement": "CAR expression after incubation with protease inhibitor", "setting": "[2]; 3 μM, various amounts of time", "value": "decrease in CAR expression"}
    ]},
    {"compound": "GD2 CAR-SMASh: GD2 scFv (14G2A) CAR with 4-1BB, CD3 zeta and C-terminal SMASh tag (SEQ ID NO: 11)", "values": [
      {"measurement": "cytotoxicity against target cells in the presence of drug (off state)", "setting": "[9]", "value": "significant cytotoxicity"}
    ]}
  ]
}
